The values below come from ChEMBL document CHEMBL5352439, “Design, synthesis, biological evaluation and molecular docking study of novel urea-based benzamide derivatives as potent poly(ADP-ribose) polymerase-1 (PARP-1) inhibitors” (Eur J Med Chem, 2022).

Each structure is given as a SMILES string.

Assay [1] deals with MDA-MB-231. In words: Antiproliferative activity against human MDA-MB-231 cells assessed as inhibition of cell growth at 20 uM incubated for 48 hrs by MTT assay. Type of assay: functional.
The test system of assay [2] is HCT-116. Briefly: Antiproliferative activity against human HCT-116 cells assessed as inhibition of cell growth at 20 uM incubated for 48 hrs by MTT assay. Type of assay: functional.
Assay [3] deals with HeLa. Briefly: Antiproliferative activity against human HeLa cells assessed as inhibition of cell growth at 20 uM incubated for 48 hrs by MTT assay. Type of assay: functional.
Assay [4] has as its system A549. Briefly: Antiproliferative activity against human A549 cells assessed as inhibition of cell growth at 20 uM incubated for 48 hrs by MTT assay. The assay is classed as functional.
The subject of assay [5] is A-375. In words: Antiproliferative activity against human A-375 cells assessed as inhibition of cell growth at 20 uM incubated for 48 hrs by MTT assay. Type of assay: functional.
The test system of assay [6] is HCT-116. In words: Antiproliferative activity against human HCT-116 cells assessed as inhibition of cell growth incubated for 48 hrs by MTT assay. Type of assay: functional, cell-based. Conditions: HCT-116, 48 h.
Assay [7] has as its system MDA-MB-231. Briefly: Antiproliferative activity against human MDA-MB-231 cells assessed as inhibition of cell growth incubated for 48 hrs by MTT assay. The assay is classed as functional, cell-based. Conditions: MDA-MB-231, 48 h.
For assay [8], the system named is HeLa. Briefly: Antiproliferative activity against human HeLa cells assessed as inhibition of cell growth incubated for 48 hrs by MTT assay. Type of assay: functional, cell-based.
For assay [9], the system named is A549. Briefly: Antiproliferative activity against human A549 cells assessed as inhibition of cell growth incubated for 48 hrs by MTT assay. Type of assay: functional, cell-based. Conditions: A549, 48 h.
Assay [10] has as its system A-375. In words: Antiproliferative activity against human A-375 cells assessed as inhibition of cell growth incubated for 48 hrs by MTT assay. The assay is classed as functional, cell-based. Conditions: A-375, 48 h.

Turning to `Cc1cccc(NC(=O)Nc2ccc(COc3ccccc3C(N)=O)cc2)c1`, the inhibition at 20 µM worked out at 42.2% with MDA-MB-231 [1]; 24% in the assay with HCT-116 [2]; 37.5% in the assay on HeLa [3]; 10% in the assay with A549 [4]; 23.7% with A-375 [5].
As to `COc1cccc(NC(=O)Nc2ccc(CNc3ccccc3C(N)=O)cc2)c1`, the inhibition at 20 µM with MDA-MB-231 [1] was determined as 50%; in the assay on HCT-116 [2] it was 82.3%; in the assay with HeLa [3] it was 66.8%; with A549 [4] it was 59.3%; in the assay on A-375 [5] it was 50.8%. Also, the IC50 in the assay on HCT-116 [6] was 14.2 µM; in the assay with MDA-MB-231 [7], 21.6 µM; with HeLa [8] it was 21.9 µM; in the assay on A549 [9], 41.5 µM; with A-375 [10] it was 29.8 µM.
Turning to `NC(=O)c1ccccc1OCc1ccc(NC(=O)Nc2cccc(F)c2)cc1`, the inhibition at 20 µM in the assay with MDA-MB-231 [1] came to 36.2%; in the assay on HCT-116 [2] it was 43%; in the assay with HeLa [3], 33.7%; in the assay on A549 [4], 28.6%; in the assay with A-375 [5], 36.9%.
Regarding `NC(=O)c1ccccc1NCc1cccc(NC(=O)Nc2ccccc2)c1`, the inhibition at 20 µM with MDA-MB-231 [1] was 51.2%; in the assay on HCT-116 [2], 64.6%; in the assay on HeLa [3], 49.8%; in the assay on A549 [4], 66.2%; in the assay on A-375 [5], 36.9%.
As to `NC(=O)c1ccccc1NCc1ccccc1NC(=O)Nc1ccccc1`, the inhibition at 20 µM with MDA-MB-231 [1] is 40.9%; in the assay on HCT-116 [2], 83.3%; with HeLa [3] it was below 1%; with A549 [4] it was 17.7%; in the assay with A-375 [5] it was below 1%.
Consider `COc1cccc(NC(=O)Nc2ccc(COc3ccccc3C(N)=O)cc2)c1`, for which the inhibition at 20 µM amounted to 53.4% in the assay with MDA-MB-231 [1]; 56.7% in the assay with HCT-116 [2]; 21% with HeLa [3]; 33.1% in the assay with A549 [4]; 33.1% with A-375 [5].
As for `Cc1cccc(NC(=O)Nc2ccccc2CNc2ccccc2C(N)=O)c1`, the inhibition at 20 µM is 17.9% with MDA-MB-231 [1]; 71.9% with HCT-116 [2]; below 1% in the assay on HeLa [3]; 1.8% in the assay on A549 [4]; 34% with A-375 [5].
For the compound `NC(=O)c1ccccc1OCc1ccc(NC(=O)Nc2ccccc2)cc1`, the inhibition at 20 µM was 45.5% with MDA-MB-231 [1]; 34.2% in the assay with HCT-116 [2]; 20.1% with HeLa [3]; 24.3% in the assay on A549 [4]; 37.3% in the assay with A-375 [5].
As for `NC(=O)c1ccccc1OCc1ccccc1NC(=O)Nc1cccc(Cl)c1`, the inhibition at 20 µM in the assay with MDA-MB-231 [1] was 30.2%; in the assay on HCT-116 [2], 72.4%; with HeLa [3], 32.7%; in the assay with A549 [4], 35.4%; in the assay with A-375 [5], 34.1%.
`NC(=O)c1ccccc1OCc1cccc(NC(=O)Nc2cccc(F)c2)c1`: the inhibition at 20 µM stood at 57.7% in the assay on MDA-MB-231 [1]; 32.6% in the assay with HCT-116 [2]; 40.1% in the assay on HeLa [3]; 17% in the assay with A549 [4]; 17.5% in the assay with A-375 [5].
In the case of `Cc1cccc(NC(=O)Nc2cccc(CNc3ccccc3C(N)=O)c2)c1`, the inhibition at 20 µM is 57.9% in the assay on MDA-MB-231 [1]; 76.2% in the assay with HCT-116 [2]; 58% in the assay on HeLa [3]; 58.3% with A549 [4]; 42.4% in the assay with A-375 [5]. In addition, the IC50 worked out at 25.3 µM in the assay on HCT-116 [6]; 24.7 µM in the assay on MDA-MB-231 [7]; 29.3 µM in the assay on HeLa [8]; 26.8 µM with A549 [9]; 37 µM in the assay on A-375 [10].
Regarding `COc1cccc(NC(=O)Nc2cccc(COc3ccccc3C(N)=O)c2)c1`, the inhibition at 20 µM in the assay with MDA-MB-231 [1] stood at 38.8%; in the assay on HCT-116 [2], 36.8%; in the assay on HeLa [3], 33.1%; with A549 [4], 15.8%; in the assay with A-375 [5], 29.9%.
As for `COc1cccc(NC(=O)Nc2ccccc2CNc2ccccc2C(N)=O)c1`, the inhibition at 20 µM in the assay with MDA-MB-231 [1] is 37.7%; in the assay with HCT-116 [2] it was 45.3%; with HeLa [3], below 1%; in the assay on A549 [4], 13.1%; with A-375 [5], 35.4%.
For the compound `NC(=O)c1ccccc1NCc1ccc(NC(=O)Nc2cccc(Br)c2)cc1`, the inhibition at 20 µM was found to be 67.2% in the assay with MDA-MB-231 [1]; 72.5% with HCT-116 [2]; 71.5% in the assay on HeLa [3]; 82.2% in the assay with A549 [4]; 67.2% in the assay on A-375 [5]. Moreover, the IC50 was 10.4 µM with HCT-116 [6]; 14.4 µM in the assay with MDA-MB-231 [7]; 14 µM with HeLa [8]; 11.8 µM in the assay on A549 [9]; 19.7 µM with A-375 [10].
As to `NC(=O)c1ccccc1OCc1cccc(NC(=O)Nc2ccccc2)c1`, the inhibition at 20 µM came to 15% in the assay with MDA-MB-231 [1]; 71.1% with HCT-116 [2]; 41% with HeLa [3]; 54.7% with A549 [4]; 40.6% with A-375 [5].
For `NC(=O)c1ccccc1OCc1ccccc1NC(=O)Nc1cccc(Br)c1`, the inhibition at 20 µM in the assay on MDA-MB-231 [1] came out at 27.3%; in the assay with HCT-116 [2], 40.4%; in the assay with HeLa [3], 42.5%; in the assay on A549 [4] it was 10.1%; with A-375 [5], 31.7%.
The corresponding values for `NC(=O)c1ccccc1NCc1ccccc1NC(=O)Nc1cccc(Cl)c1` are 36.2%, 44.3%, 7.53%, 52.6% and 30%.
In the case of `NC(=O)c1ccccc1OCc1ccccc1NC(=O)Nc1cccc(F)c1`, the inhibition at 20 µM in the assay on MDA-MB-231 [1] is 40.4%; in the assay with HCT-116 [2], 18.9%; in the assay with HeLa [3], below 1%; with A549 [4], below 1%; in the assay on A-375 [5] it was 22.5%.
For the compound `NC(=O)c1ccccc1NCc1ccccc1NC(=O)Nc1cccc(F)c1`, the inhibition at 20 µM in the assay on MDA-MB-231 [1] was 52.1%; with HCT-116 [2], 40.5%; in the assay on HeLa [3], 44.6%; in the assay with A549 [4], below 1%; with A-375 [5] it was 28.3%.
As for `NC(=O)c1ccccc1NCc1ccc(NC(=O)Nc2cccc(F)c2)cc1`, the inhibition at 20 µM worked out at 34.6% with MDA-MB-231 [1]; 27% in the assay on HCT-116 [2]; 27.4% with HeLa [3]; 8.3% in the assay with A549 [4]; 36.8% with A-375 [5].
Take `NC(=O)c1ccccc1OCc1ccc(NC(=O)Nc2cccc(Cl)c2)cc1`: the inhibition at 20 µM in the assay on MDA-MB-231 [1] stood at 40.1%; with HCT-116 [2], 74%; with HeLa [3], 66.1%; in the assay on A549 [4], 46.6%; with A-375 [5], 54.2%. Also, the IC50 in the assay on HCT-116 [6] was found to be 16.1 µM; in the assay on MDA-MB-231 [7], 24.9 µM; in the assay with HeLa [8], 15.2 µM; in the assay with A549 [9], 25.8 µM; in the assay with A-375 [10], 26.7 µM.
Consider `Cc1cccc(NC(=O)Nc2ccccc2COc2ccccc2C(N)=O)c1`, for which the inhibition at 20 µM in the assay on MDA-MB-231 [1] was 37.8%; in the assay on HCT-116 [2], 80%; in the assay with HeLa [3], below 1%; in the assay with A549 [4], 20.6%; in the assay on A-375 [5], below 1%.
On to `NC(=O)c1ccccc1NCc1cccc(NC(=O)Nc2cccc(F)c2)c1`, for which the inhibition at 20 µM in the assay with MDA-MB-231 [1] is 58.9%; in the assay on HCT-116 [2] it was 45.6%; with HeLa [3], 28.9%; in the assay with A549 [4], below 1%; in the assay with A-375 [5], 17.9%.
With `NC(=O)c1ccccc1NCc1ccccc1NC(=O)Nc1cccc(Br)c1`, the inhibition at 20 µM in the assay on MDA-MB-231 [1] worked out at 19.2%; in the assay on HCT-116 [2], 29.1%; with HeLa [3], 15.5%; with A549 [4], 36.1%; with A-375 [5], 38.2%.
As for `Cc1cccc(NC(=O)Nc2cccc(COc3ccccc3C(N)=O)c2)c1`, the inhibition at 20 µM in the assay with MDA-MB-231 [1] came out at 3.6%; with HCT-116 [2], 66.5%; in the assay with HeLa [3], 48.6%; in the assay with A549 [4], 57.7%; in the assay on A-375 [5], 43.7%.
The corresponding values for `COc1cccc(NC(=O)Nc2ccccc2COc2ccccc2C(N)=O)c1` are 37.3%, 70.2%, 26.5%, below 1% and 33.1%.
Take `NC(=O)c1ccccc1NCc1ccc(NC(=O)Nc2ccccc2)cc1`: the inhibition at 20 µM in the assay with MDA-MB-231 [1] came to 45.2%; in the assay on HCT-116 [2], 41.2%; in the assay with HeLa [3], 32.3%; with A549 [4], 29%; in the assay with A-375 [5], 35%.
Turning to `Cc1cccc(NC(=O)Nc2ccc(CNc3ccccc3C(N)=O)cc2)c1`, the inhibition at 20 µM came to 50.5% in the assay on MDA-MB-231 [1]; 33.7% in the assay with HCT-116 [2]; 39.6% in the assay on HeLa [3]; 2.12% in the assay with A549 [4]; 14.3% with A-375 [5].
Turning to `COc1cccc(NC(=O)Nc2cccc(CNc3ccccc3C(N)=O)c2)c1`, the inhibition at 20 µM with MDA-MB-231 [1] was 59.1%; in the assay on HCT-116 [2], 30.2%; in the assay on HeLa [3] it was 27%; with A549 [4], below 1%; in the assay on A-375 [5], 25%.
On to `NC(=O)c1ccccc1OCc1ccccc1NC(=O)Nc1ccccc1`, for which the inhibition at 20 µM came to 30.3% in the assay with MDA-MB-231 [1]; 13.3% in the assay on HCT-116 [2]; 36% with HeLa [3]; 33% with A549 [4]; 21.7% in the assay on A-375 [5].
